pIC50: −log10 of the molar value. Like-named read-outs stand apart in the source and are kept apart here. d = 2'-deoxy (DNA); m = 2'-O-methyl
Assays:
Type in all cases: cell-based
bcl-2 messenger RNA [1] = assay: Gene level (Bcl-2) G3139 regulation experiment, Real-Time-PCR, KB cancer cells; conditions: for Ratio (bcl-2/β-actin): 1 μM G3139, 4 h incubation then 48 h culture, control group 100%
Protocol: (§1) (1) We will place cancer cells, such as A549 cells, KB cells, and LNCaP prostate cancer cells in 6-well plates and make the cells grow in an RPMI1640 culture solution containing 10% fetal calf serum to allow the cells to grow overnight to achieve a plating rate of 80%.
(§2) (3) After incubation in an environment of 37 degrees and 5% CO2 for 4 h, the cells will be transferred to a fresh culture solution and the culture will last for 48 h. Cells were collected, lysed, and extracted RNA according to standard methods.
(§3) (4) We will analyze the levels of bcl-2 messenger RNA in each group with the Real-Time-PCR technology, and we can finally quantify the expression of bcl-2 after treatment in each group according to the standard methods of reagent suppliers.
By designing different sample groups, we regulate the levels of bcl-2 in KB cells.

bcl-2 messenger RNA [2] = assay: Gene level (Bcl-2) G3139 regulation experiment, Real-Time-PCR, A549 lung cancer cells; conditions: for Ratio (bcl-2/β-actin): 1 μM G3139, 4 h incubation then 48 h culture, control group 100%
Protocol: as §1, §2, §3

bcl-2 messenger RNA [3] = assay: Gene level (Bcl-2) G3139 regulation experiment, Real-Time-PCR, LNCaP prostate cancer cells; conditions: for Ratio (bcl-2/β-actin): 1 μM G3139, 4 h incubation then 48 h culture, control group 100%
Protocol: as §1, §2, §3

A549 cells = assay: A549 lung cancer cytotoxicity test (MTS); conditions: Homo sapiens, paclitaxel 1 nmol/L-100 μmol/L, antisense oligonucleotide fixed 10 μmol/L
Protocol: (1) We placed A549 cells in 96-well plates, and made the cells grow in an RPMI1640 culture solution containing 10% fetal calf serum to allow the cells to grow overnight to achieve a plating rate of 60-70%.
(2) A toxicity test of multiple paclitaxel (PTX) concentration gradients (1 nmol/L-100 μmol/L) and antisense oligonucleotide concentrations (10 μmol/L) in each group was conducted with each concentration group on the second day, and each concentration group was incubated in a 37 degree and 5% CO2 environment.
(3) 20 ul of MTS reagent (a novel tetrazole compound) was added at different time points 24 h, 48 h, and 72 h, and the detection was performed at a wavelength of 490 nm and the results were as shown in the following table: […]

| Compound | gene-level down-regulation of bcl-2 (bcl-2 messenger RNA [1]; 1 μM G3139) [%] | Ratio (bcl-2/β-actin) (bcl-2 messenger RNA [1]) [%] | gene-level down-regulation of bcl-2 (bcl-2 messenger RNA [2]; 1 μM G3139) [%] | Ratio (bcl-2/β-actin) (bcl-2 messenger RNA [2]) [%] | gene-level down-regulation of bcl-2 (bcl-2 messenger RNA [3]; 1 μM G3139) [%] | Ratio (bcl-2/β-actin) (bcl-2 messenger RNA [3]) [%] | pIC50 (A549 cells; 24 h, read-out: IC50 after 24 h) | pIC50 (A549 cells; 48 h, read-out: IC50 after 48 h) | pIC50 (A549 cells; 72 h, read-out: IC50 after 72 h) |
| --- | --- | --- | --- | --- | --- | --- | --- | --- | --- |
| 5′-UCU CCC AGC GTG CGC CAU-3′ (antisense UCUCCCAGCGTGCGCCAU; sugars from the 5' end m3 d12 m3, all phosphorothioate, methylation of C not given here) [free 2′-O-Me modified G3139] | 10.96 | 89.04 | 6.71 | 93.29 | 5.11 | 94.89 |  |  |  |
| 5′-TCT CCC AGC GTG CGC CAT-3′ (antisense TCTCCCAGCGTGCGCCAT; DNA, all phosphorothioate, methylation of C not given here) [free G3139] |  | 95.31 |  | 88.75 |  | 93.15 |  |  |  |
| CC(=O)O[C@H]1C(=O)[C@@]2(C)[C@H]([C@H](OC(=O)c3ccccc3)[C@]3(O)C[C@H](OC(=O)[C@H](O)[C@@H](NC(=O)c4ccccc4)c4ccccc4)C(C)=C1C3(C)C)[C@]1(OC(C)=O)CO[C@@H]1C[C@@H]2O [Paclitaxel (PTX) alone, Paclitaxel] |  |  |  |  |  |  | 7.12 | 7.55 | 7.75 |

From US20190328763A1, “A LIPID NANOPARTICLE FOR CARRYING ANTISENSE OLIGONUCLEOTIDES INHIBITING BCL-2 AND METHOD FOR PREPARING THE SAME” (NANJING LUYE PHARMACEUTICAL CO., LTD., priority 2016, published 2019)
